From PubChem BioAssay AID1259407 (Chemical Carcinogenesis Research Information System (CCRIS), 2018)
The source made the active and inactive calls. How the calls were made is not given here.

Test system: CCRIS mutagenicity, Ames/micronucleus/aberration tests
Experiment: CCRIS mutagenicity studies
[1] = Test System: AMES SALMONELLA TYPHIMURIUM, Strain/Indicator: TA98, Metabolic Activation: NONE, Method: STANDARD PLATE
[2] = Test System: AMES SALMONELLA TYPHIMURIUM, Strain/Indicator: TA100, Metabolic Activation: NONE, Method: STANDARD PLATE

SMILES: CCN(CCCl)c1ccc(CCCNc2c3ccccc3nc3ccccc23)cc1
- mutagenic call (Test System: AMES SALMONELLA TYPHIMURIUM, Strain/Indicator: DG1588, Metabolic Activation: NONE, Method: STANDARD PLATE): inactive; negative
- mutagenic call (Test System: AMES SALMONELLA TYPHIMURIUM, Strain/Indicator: DG1592, Metabolic Activation: NONE, Method: STANDARD PLATE): inactive; negative
- mutagenic call (Test System: AMES SALMONELLA TYPHIMURIUM, Strain/Indicator: DG1593, Metabolic Activation: NONE, Method: STANDARD PLATE): active; positive
- mutagenic call [1]: active; positive
- mutagenic call [2]: active; positive
- mutagenic call (Test System: AMES SALMONELLA TYPHIMURIUM, Strain/Indicator: TA102, Metabolic Activation: NONE, Method: STANDARD PLATE): inactive; negative
- mutagenic call (Test System: AMES SALMONELLA TYPHIMURIUM, Strain/Indicator: TA104, Metabolic Activation: NONE, Method: STANDARD PLATE): active; positive
- mutagenic call (Test System: AMES SALMONELLA TYPHIMURIUM, Strain/Indicator: TA1535, Metabolic Activation: NONE, Method: STANDARD PLATE): inactive; negative
- mutagenic call (Test System: AMES SALMONELLA TYPHIMURIUM, Strain/Indicator: TA1537 (PKM101), Metabolic Activation: NONE, Method: STANDARD PLATE): active; positive
- mutagenic call (Test System: AMES SALMONELLA TYPHIMURIUM, Strain/Indicator: TA1537, Metabolic Activation: NONE, Method: STANDARD PLATE): active; positive
- mutagenic call (Test System: AMES SALMONELLA TYPHIMURIUM, Strain/Indicator: TA1538, Metabolic Activation: NONE, Method: STANDARD PLATE): inactive; negative
- mutagenic call (Test System: AMES SALMONELLA TYPHIMURIUM, Strain/Indicator: TA1975 (PKM101), Metabolic Activation: NONE, Method: STANDARD PLATE): inactive; negative
- mutagenic call (Test System: AMES SALMONELLA TYPHIMURIUM, Strain/Indicator: TA1975, Metabolic Activation: NONE, Method: STANDARD PLATE): inactive; negative
- mutagenic call (Test System: AMES SALMONELLA TYPHIMURIUM, Strain/Indicator: TA1977, Metabolic Activation: NONE, Method: STANDARD PLATE): active; positive
- mutagenic call (Test System: AMES SALMONELLA TYPHIMURIUM, Strain/Indicator: TA1978 (PKM101), Metabolic Activation: NONE, Method: STANDARD PLATE): active; positive
- mutagenic call (Test System: AMES SALMONELLA TYPHIMURIUM, Strain/Indicator: TA1978, Metabolic Activation: NONE, Method: STANDARD PLATE): inactive; negative
- mutagenic call (Test System: AMES SALMONELLA TYPHIMURIUM, Strain/Indicator: TA4001, Metabolic Activation: NONE, Method: STANDARD PLATE): active; positive
- mutagenic call (Test System: AMES SALMONELLA TYPHIMURIUM, Strain/Indicator: TA4006, Metabolic Activation: NONE, Method: STANDARD PLATE): active; positive

SMILES: COc1cc2c(cc1O)CC[C@@H]1[C@@H]2CC[C@]2(C)[C@@H](O)CC[C@@H]12
- mutagenic call (Test System: Mouse lymphoma, Strain/Indicator: L5178Y (tk+/tk-), Metabolic Activation: Rat, Liver, S-9, Aroclor 1254, Method: Suspension/plate): active; equivocal (previous evaluation positive)

SMILES: c1ccc2c(c1)c1ccccc1c1ccccc21
- mutagenic call (Test System: AMES SALMONELLA TYPHIMURIUM, Strain/Indicator: TA98, Metabolic Activation: RAT, LIVER, S-9, AROCLOR 1254, Method: FLUCTUATION): active; positive
- mutagenic call (Test System: AMES SALMONELLA TYPHIMURIUM, Strain/Indicator: TA100, Metabolic Activation: RAT, LIVER, S-9, AROCLOR 1254, Method: STANDARD PLATE): active; positive

SMILES: CNS(=O)(=O)c1ccc(NC(C)=O)cc1
- mutagenic call (Test System: AMES SALMONELLA TYPHIMURIUM, Strain/Indicator: TA98, Metabolic Activation: NONE, Method: PREINCUBATION): inactive; negative
- mutagenic call (Test System: AMES SALMONELLA TYPHIMURIUM, Strain/Indicator: TA98, Metabolic Activation: RAT, LIVER, S-9, AROCLOR 1254, Method: PREINCUBATION): inactive; negative
- mutagenic call (Test System: AMES SALMONELLA TYPHIMURIUM, Strain/Indicator: TA100, Metabolic Activation: NONE, Method: PREINCUBATION): inactive; negative
- mutagenic call (Test System: AMES SALMONELLA TYPHIMURIUM, Strain/Indicator: TA100, Metabolic Activation: RAT, LIVER, S-9, AROCLOR 1254, Method: PREINCUBATION): inactive; negative

SMILES: OCc1ccc2c(c1)-c1cccc3cccc-2c13
- mutagenic call [1]: inactive; negative
- mutagenic call [2]: active; positive
